# According to PMC9861162 (Pharmaceuticals, 2022):
# “And” between values parts separate entries of the source, which are not always exact repeats. Identical values can stand only once. Like-named read-outs stand apart in the source and are kept apart here.
# Tests used:
# CYP2D6 = CYP2D6 (Homo sapiens, UniProt P10635)
# Description: The Ki input values were estimated from the ratio IC50/2. Since the IC50 experiments were designed considering the substrate concentration equal to Km, the simplification of Ki as IC50/2 was considered for a competitive inhibition reaction.
# The following Equation (4) was considered for the potential DDI evaluation:(4) AUCR=AUCwith inhibitor/AUCwithout inhibitor where AUCR is the area under the curve ratio, AUCwith inhibitor is AUC in the presence of the inhibitor, and AUCwithout inhibitor is AUC in the absence of the inhibitor.
# [1] = all trials; ref [3],[4],[5]; cited from earlier work
# [2] = set-up: method as in Antunes et al. [14]; details: ref Antunes et al. [14], cited from earlier work
# interdigital tinea pedis = details: ref [3]; cited from earlier work
# [3] = set-up: method as in Drugbank; details: PBPK input; ref Drugbank; cited from earlier work
# [4] = dapaconazole PBPK model in dogs (Simcyp); set-up: species or system dog
# Description: A PBPK model was first developed in dogs using a hybrid PBPK approach employing the in vivo clearance reported in dogs. The input parameters are described in Table 4.
# Then, the full PBPK model, which used the method 2 (Rodgers and Rowland [15]) to predict the volume of distribution at steady-state conditions (Vss) was evaluated.
# All modeling was conducted using Simcyp modeling software (v. 20, Certara, Princeton, NJ, US). […] All of the input parameters are described in Table 4.
# The Simcyp minimal PBPK, which considers all organs other than the intestine and liver as a single compartment, plus a SAC distribution model were selected. […] The Vss was predicted using Rodgers and Rowland’s equations (method 2). A Kp scalar was determined to best describe the observed dog data using a sensitivity analysis approach. The final values of Vsac, kin, and kout were determined from the parameter estimation approach selecting the best values to describe the shape of the observed PK profile. For the elimination model development, the in vivo systemic clearance values reported in dogs were employed in a middle-out approach. […] The PBPK model was evaluated through a visual comparison of observed in vivo plasma concentration–time profiles with the concentrations predicted in dogs, and the PK parameters within observed/predicted ratios between 0.5-fold to 2-fold were considered acceptable.
# tinea cruris = details: topical treatment of tinea cruris; ref [4]; cited from earlier work
# CYP3A4/5 = experiment: in vitro CYP450 metabolism inhibition assay in human liver microsomes, CYP3A (midazolam or nifedipine)
# Description: (§1) The incubation conditions employed for each CYP450 isoform were performed, as previously described.
# (§2) Buffer solution (0.1 mol/L aqueous phosphate buffer, pH 7.4, 69 µL), NADPH-regenerating solutions (10 µL solution A: 26 mmol/L NADP+, 66 mmol/L glucose-6-phosphate, and 66 mmol/L MgCl2; 2 µL solution B: 40 U/mL glucose-6-phosphate dehydrogenase in 5 mmol/L sodium citrate), and deionized water (69 µL) were added, in a total volume of 150 μL. The tubes were vortex-mixed and preincubated with continuous gentle shaking for 5 min at 37 °C in a shaking water bath. Reactions were initiated by the addition of 50 µL of HLM solution in the tubes which were gently mixed by hand and incubated with continuous gentle shaking at 37 °C. Aliquots of 200 µL ice-cold solvent (Table 1) containing IS (1 µg/mL) were added. […] The supernatants were transferred to glass autosampler vials and submitted to LC-MS/MS analysis (5 µL injection volume) to monitor the substrate metabolite formation.
# [5] = set-up: method as in Antunes et al. [14]; details: dog plasma; ref Antunes et al. [14]; cited from earlier work
# pityriasis versicolor = details: ref [5]; cited from earlier work
# CYP2A6 = molecular target: T1, CYP2A6 (Homo sapiens, UniProt P11509); experiment: in vitro CYP450 metabolism inhibition assay in human liver microsomes, CYP2A6 (coumarin); details: microsomes
# T1 sequence (P11509 1-494): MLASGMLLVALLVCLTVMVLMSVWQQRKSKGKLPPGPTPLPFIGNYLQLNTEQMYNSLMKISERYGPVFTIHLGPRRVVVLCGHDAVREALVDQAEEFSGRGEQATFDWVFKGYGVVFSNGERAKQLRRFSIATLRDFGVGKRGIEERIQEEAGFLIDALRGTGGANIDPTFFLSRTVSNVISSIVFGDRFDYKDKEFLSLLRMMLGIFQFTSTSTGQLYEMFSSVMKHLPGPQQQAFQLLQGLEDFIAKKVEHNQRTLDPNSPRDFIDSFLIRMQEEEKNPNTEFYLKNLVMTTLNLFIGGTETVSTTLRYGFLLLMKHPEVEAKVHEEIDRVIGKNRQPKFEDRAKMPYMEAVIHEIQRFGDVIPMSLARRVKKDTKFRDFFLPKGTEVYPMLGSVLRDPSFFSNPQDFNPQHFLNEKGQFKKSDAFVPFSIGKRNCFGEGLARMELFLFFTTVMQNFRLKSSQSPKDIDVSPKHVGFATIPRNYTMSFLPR
# Description: as §1, §2
# [6] = set-up: method as in Antunes et al. [14]; details: ref Antunes et al. [14], cited from earlier work; remark: listed apart in the source
# Chain of CYP2D6 (P10635 whole entry): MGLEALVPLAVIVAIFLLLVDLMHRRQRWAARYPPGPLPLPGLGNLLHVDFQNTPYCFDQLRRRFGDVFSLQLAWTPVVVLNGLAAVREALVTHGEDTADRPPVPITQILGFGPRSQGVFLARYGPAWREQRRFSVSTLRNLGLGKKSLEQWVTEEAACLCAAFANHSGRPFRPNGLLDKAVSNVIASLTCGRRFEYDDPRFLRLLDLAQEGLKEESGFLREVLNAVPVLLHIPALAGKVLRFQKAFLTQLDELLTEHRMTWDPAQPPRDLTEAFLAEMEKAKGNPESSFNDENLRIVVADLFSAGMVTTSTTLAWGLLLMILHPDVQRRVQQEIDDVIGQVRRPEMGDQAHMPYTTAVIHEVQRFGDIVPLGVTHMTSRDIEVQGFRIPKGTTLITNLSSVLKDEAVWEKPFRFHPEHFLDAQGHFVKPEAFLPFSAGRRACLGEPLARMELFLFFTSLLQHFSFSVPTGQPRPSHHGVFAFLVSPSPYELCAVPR
compound,measurement,setting,value
"FC(F)(F)c1ccc(COC(Cn2ccnc2)c2ccc(Cl)cc2Cl)cc1 (stereo not drawn) [dapaconazole, Dapaconazole]",DDI potential from Ki and R1 values,CYP2D6,high potential
same,R1,CYP2D6,1.86
same,safety profile,[1],good safety profile
same,"fu,inc",[2]; human liver microsome incubation,0.94
same,CL int. mic.,[2]; human liver microsomes,118.5 µL/min/mg
same,efficacy compared with ketoconazole,interdigital tinea pedis,noninferior efficacy
same,log P,[3],5.63
same,pKa (monoprotic base),[3],6.77
same,AUC0-t Observed/predicted ratio,[4]; intravenous 1 mg/kg,0.83
same,CL Observed/predicted ratio,[4]; intravenous 1 mg/kg,1.29
same,Cmax Observed/predicted ratio,[4]; intravenous 1 mg/kg,0.92
same,t1/2 Terminal Observed/predicted ratio,[4]; intravenous 1 mg/kg,1.08
same,AUC0-t Observed/predicted ratio,[4]; intravenous 2 mg/kg,1.27
same,CL Observed/predicted ratio,[4]; intravenous 2 mg/kg,1.09
same,Cmax Observed/predicted ratio,[4]; intravenous 2 mg/kg,1.78
same,t1/2 Terminal Observed/predicted ratio,[4]; intravenous 2 mg/kg,1.29
same,AUC0-t Observed/predicted ratio,[4]; intravenous 20 mg/kg,0.65
same,CL Observed/predicted ratio,[4]; intravenous 20 mg/kg,1.54
same,Cmax Observed/predicted ratio,[4]; intravenous 20 mg/kg,0.58
same,t1/2 Terminal Observed/predicted ratio,[4]; intravenous 20 mg/kg,1.04
same,efficacy compared with miconazole,tinea cruris,noninferior efficacy
same,IC50,"CYP3A4/5; HLM, 3A4, range over midazolam and nifedipine substrates",8 to 30 nM
same,IC50,"CYP3A4/5; HLM, midazolam as substrate, figure in parentheses not defined",7.69 nM
same,Ki,"CYP3A4/5; Ki = IC50/2, substrate midazolam",4 nM
same,IC50,CYP3A4/5; microsomes,30.3 nM
same,Unbound fraction,[5],0.037
same,efficacy compared with ketoconazole,pityriasis versicolor,noninferior efficacy
same,IC50,CYP2A6,20700 nM
same,"fu,inc",[6]; dog liver microsome incubation,0.97
same,CL int. mic.,[6]; dog liver microsomes,257.97 µL/min/mg and 258 µL/min/mg
